Read-outs that look alike come from different tables or passages of the source. Non-standard residues stand in square brackets, D forms with d. Residues, ends and D or L forms follow the SMILES beside them. No end group written: not given here.
Tests used:
E. coli (ATCC BAA-2340) = experiment: microbe, parasite or virus in culture; type: cell-based, Escherichia coli; settings: for MBC: ATCC BAA-2340, 18 h; for MIC: ATCC BAA-2340, 24 h
In short: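 Log-phase bacteria at a final 5 × 10^5 CFU/mL were incubated with peptide at 1–512 µM for 24 h at 37 °C, with absorbance read at 550 nm. MIC was the lowest concentration inhibiting visible growth. For MBC, cultures at or above MIC were plated on Mueller Hinton agar for 18 h; MBC was the concentration killing 99.9%.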

wax moth larvae = experiment: Toxicity in wax moth larvae (uninfected); type: in vivo, Galleria mellonella; settings: n = 9 in each group
Experimental: The antimicrobial activities of temporin-PKE and temporin-PKE-3K, in vivo, were studied in the wax moth larvae model. Wax moth larvae (Livefood UK Ltd., Rooks Bridge, UK), weighing 250 ± 25 mg, were divided into different groups (n = 9 in each group). […] After 2 h of exposure, 10 µL of peptide solution, with concentrations of 4, 8, and 16 mg/kg, was injected into the larvae in each group. PBS was utilised as the negative control, and 50 mg/kg vancomycin was selected as the positive control for MRSA. The survival rates of the larvae were recorded every 12 h for 120 h.

Molecule	MBC (E. coli (ATCC BAA-2340); read-out: MBC) [µM]	MIC (E. coli (ATCC BAA-2340); read-out: MIC) [µM]	mortality of larvae treated with peptide (wax moth larvae; highest test concentration, late stage) [%]	survival of larvae injected with peptide (wax moth larvae; doses of 16 mg/kg)	MBC (E. coli (ATCC BAA-2340)) [µM]	MIC (E. coli (ATCC BAA-2340)) [µM]
FLPKIIGKLSSKLPKIF-NH2 [Temporin-PKE-4K]	64	32	–	–	–	–
FLPLIIGALSSLLPKIF-NH2 [Temporin-PKE]	>512	>512	50	–	–	–
FLPKIIGKLSSLLPKIF-NH2 [Temporin-PKE-3K]	–	–	–	totally survived	2	2
CC[C@@H](C)[C@@H](NC(=O)[C@H](CCCCN)NC(=O)[C@@H]1CCCN1C(=O)[C@H](CC(C)C)NC(=O)[C@H](CC(C)C)NC(=O)[C@H](CO)NC(=O)[C@H](CO)NC(=O)[C@H](CC(C)C)NC(=O)[C@H](C)NC(=O)CNC(=O)[C@@H](NC(=O)[C@@H](NC(=O)[C@H](CC(C)C)NC(=O)[C@@H]1CCCN1C(=O)[C@H](CC(C)C)NC(=O)[C@@H](N)Cc1ccccc1)[C@@H](C)CC)[C@@H](C)CC)C(=O)N[C@@H](Cc1ccccc1)C(N)=O [Temporin-PKE-i] (H-FLPLIIGALSSLLPK[dI]F-NH2)	>512	>512	–	–	–	–
FLPLIIGKLSSLLPKIF-NH2 [Temporin-PKE-2K]	–	–	–	–	8	8
FLPLIIGALSSKLPKIF-NH2 [Temporin-PKE-K12]	–	–	–	–	16	16
CC[C@@H](C)[C@@H](NC(=O)[C@H](CCCCN)NC(=O)[C@@H]1CCCN1C(=O)[C@H](CC(C)C)NC(=O)[C@H](CC(C)C)NC(=O)[C@H](CO)NC(=O)[C@H](CO)NC(=O)[C@H](CC(C)C)NC(=O)[C@H](C)NC(=O)CNC(=O)[C@H](NC(=O)[C@H](NC(=O)[C@H](CC(C)C)NC(=O)[C@@H]1CCCN1C(=O)[C@H](CC(C)C)NC(=O)[C@@H](N)Cc1ccccc1)[C@H](C)CC)[C@H](C)CC)C(=O)N[C@@H](Cc1ccccc1)C(N)=O [Temporin-PKE-3i] (H-FLPL[dI][dI]GALSSLLPK[dI]F-NH2)	>512	>512	–	–	–	–

Reference: PMC9221509, “Discovery of a Novel Antimicrobial Peptide, Temporin-PKE, from the Skin Secretion of Pelophylax kl. esculentus, and Evaluation of Its Structure-Activity Relationships” (Biomolecules, 2022)
